Measurements as given in ChEMBL document CHEMBL1201862, “PubChem BioAssay data set” (2004).
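Where inhibition never reached the appropriate level, the endpoint shown equals the highest concentration tested. Otherwise, values were interpolated linearly from a five-concentration, 48-hour dose response in 96-well plates. GI50 marks 50% less growth.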 Active and inactive are the calls of the source. Rule as the data show it: active = GI50 up to about 1.1 µM and inactive = higher.

Columns and labels:
Assay in all cases: growth of human tumour cells (NCI), 48 h
MDA-N = system: MDA-N
HT-29 = system: HT-29
SN12C = system: SN12C
Hs-578T = system: Hs-578T
OVCAR-5 = system: OVCAR-5
RPMI-8226 = system: RPMI-8226
PC-3 = system: PC-3
BT-549 = system: BT-549
HL-60 = system: HL-60
SNB-19 = system: SNB-19
SK-MEL-2 = system: SK-MEL-2
M14 = system: M14
LOX IMVI = system: LOX IMVI
SK-MEL-28 = system: SK-MEL-28
U-251 = system: U-251
NCI-H460 = system: NCI-H460
UACC-62 = system: UACC-62
CCRF-CEM = system: CCRF-CEM
Malme-3M = system: Malme-3M
NCI/ADR-RES = system: NCI/ADR-RES
DU-145 = system: DU-145
SR = system: SR
EKVX = system: EKVX
CAKI-1 = system: CAKI-1
UACC-257 = system: UACC-257
OVCAR-4 = system: OVCAR-4
SK-MEL-5 = system: SK-MEL-5
SF-539 = system: SF-539
786-0 = system: 786-0
SNB-75 = system: SNB-75
RXF 393 = system: RXF 393
KM12 = system: KM12
SK-OV-3 = system: SK-OV-3
COLO 205 = system: COLO 205
HOP-62 = system: HOP-62
HOP-92 = system: HOP-92
MCF7 = system: MCF7
K562 = system: K562
SF-295 = system: SF-295
HCT-116 = system: HCT-116
HCT-15 = system: HCT-15
NCI-H522 = system: NCI-H522
OVCAR-8 = system: OVCAR-8
TK-10 = system: TK-10
NCI-H23 = system: NCI-H23
MDA-MB-231 = system: MDA-MB-231
IGROV-1 = system: IGROV-1
NCI-H226 = system: NCI-H226
OVCAR-3 = system: OVCAR-3
A549 = system: A549
A498 = system: A498
SW-620 = system: SW-620
MOLT-4 = system: MOLT-4
MDA-MB-435 = system: MDA-MB-435
T47D = system: T47D
SF-268 = system: SF-268
ACHN = system: ACHN
UO-31 = system: UO-31
HCC 2998 = system: HCC 2998

Br/C(=N\N=c1/nn[nH][nH]1)c1ccncc1
GI50 (MDA-N): > 100 µM (inactive)
GI50 (HT-29): > 100 µM (inactive)
GI50 (SN12C): > 100 µM (inactive)
GI50 (Hs-578T): > 100 µM (inactive)
GI50 (OVCAR-5): > 100 µM (inactive)
GI50 (RPMI-8226): > 100 µM (inactive)
GI50 (PC-3): > 100 µM (inactive)
GI50 (BT-549): > 100 µM (inactive)
GI50 (HL-60): > 100 µM (inactive)
GI50 (SNB-19): > 100 µM (inactive)
GI50 (SK-MEL-2): > 100 µM (inactive)
GI50 (M14): > 100 µM (inactive)
GI50 (LOX IMVI): > 100 µM (inactive)
GI50 (SK-MEL-28): > 100 µM (inactive)
GI50 (U-251): > 100 µM (inactive)
GI50 (NCI-H460): > 100 µM (inactive)
GI50 (UACC-62): > 100 µM (inactive)
GI50 (CCRF-CEM): > 100 µM (inactive)
GI50 (Malme-3M): > 100 µM (inactive)
GI50 (NCI/ADR-RES): > 100 µM (inactive)
GI50 (DU-145): > 100 µM (inactive)
GI50 (SR): > 100 µM (inactive)
GI50 (EKVX): > 100 µM (inactive)
GI50 (CAKI-1): > 100 µM (inactive)
GI50 (UACC-257): > 100 µM (inactive)
GI50 (OVCAR-4): > 100 µM (inactive)
GI50 (SK-MEL-5): > 100 µM (inactive)
GI50 (SF-539): > 100 µM (inactive)
GI50 (786-0): > 100 µM (inactive)
GI50 (SNB-75): > 100 µM (inactive)
GI50 (RXF 393): > 100 µM (inactive)
GI50 (KM12): > 100 µM (inactive)
GI50 (SK-OV-3): > 100 µM (inactive)
GI50 (COLO 205): > 100 µM (inactive)
GI50 (HOP-62): > 100 µM (inactive)
GI50 (HOP-92): > 100 µM (inactive)
GI50 (MCF7): > 100 µM (inactive)
GI50 (K562): > 100 µM (inactive)
GI50 (SF-295): > 100 µM (inactive)
GI50 (HCT-116): > 100 µM (inactive)
GI50 (HCT-15): > 100 µM
GI50 (NCI-H522): > 100 µM (inactive)
GI50 (OVCAR-8): > 100 µM (inactive)
GI50 (TK-10): > 100 µM (inactive)
GI50 (NCI-H23): > 100 µM (inactive)
GI50 (MDA-MB-231): > 100 µM (inactive)
GI50 (IGROV-1): > 100 µM (inactive)
GI50 (NCI-H226): > 100 µM (inactive)
GI50 (OVCAR-3): > 100 µM (inactive)
GI50 (A549): > 100 µM (inactive)
GI50 (A498): > 100 µM (inactive)
GI50 (SW-620): > 100 µM (inactive)
GI50 (MOLT-4): > 100 µM (inactive)
GI50 (MDA-MB-435): > 100 µM (inactive)
GI50 (T47D): > 100 µM (inactive)
GI50 (SF-268): > 100 µM (inactive)
GI50 (ACHN): > 100 µM (inactive)

Cn1c(-c2cccs2)cc(-c2cccs2)c1-c1ccco1
GI50 (UO-31): 31.5 µM (inactive)
GI50 (MDA-N): 39.5 µM (inactive)
GI50 (HT-29): > 67.6 µM (inactive)
GI50 (SN12C): > 94.6 µM (inactive)
GI50 (Hs-578T): 26.5 µM (inactive)
GI50 (OVCAR-5): > 100 µM (inactive)
GI50 (RPMI-8226): 31 µM (inactive)
GI50 (PC-3): 72.6 µM (inactive)
GI50 (BT-549): > 100 µM (inactive)
GI50 (HL-60): 23.9 µM (inactive)
GI50 (SNB-19): > 100 µM (inactive)
GI50 (SK-MEL-2): 30.3 µM (inactive)
GI50 (M14): 26.4 µM (inactive)
GI50 (LOX IMVI): 22.7 µM (inactive)
GI50 (SK-MEL-28): 49.1 µM (inactive)
GI50 (U-251): 56.1 µM (inactive)
GI50 (NCI-H460): 38.7 µM (inactive)
GI50 (UACC-62): 30.9 µM (inactive)
GI50 (CCRF-CEM): 28.8 µM (inactive)
GI50 (NCI/ADR-RES): 40.7 µM (inactive)
GI50 (DU-145): > 100 µM (inactive)
GI50 (SR): 14.8 µM (inactive)
GI50 (EKVX): 16.6 µM (inactive)
GI50 (CAKI-1): 11.4 µM (inactive)
GI50 (UACC-257): 39.9 µM (inactive)
GI50 (OVCAR-4): 1.7 µM (inactive)
GI50 (SK-MEL-5): 23.8 µM (inactive)
GI50 (SF-539): > 100 µM (inactive)
GI50 (786-0): 69.2 µM (inactive)
GI50 (SNB-75): 31.8 µM (inactive)
GI50 (RXF 393): 27.9 µM (inactive)
GI50 (KM12): 6.07 µM (inactive)
GI50 (SK-OV-3): > 100 µM (inactive)
GI50 (COLO 205): 27.5 µM (inactive)
GI50 (HOP-62): > 92 µM (inactive)
GI50 (HOP-92): 63 µM (inactive)
GI50 (HCC 2998): 26.6 µM (inactive)
GI50 (MCF7): 0.473 µM (active)
GI50 (K562): 10.2 µM (inactive)
GI50 (SF-295): 29.4 µM (inactive)
GI50 (HCT-116): 27.7 µM (inactive)
GI50 (HCT-15): 14.4 µM
GI50 (NCI-H522): 21.2 µM (inactive)
GI50 (OVCAR-8): > 100 µM (inactive)
GI50 (TK-10): 41.7 µM (inactive)
GI50 (NCI-H23): 3.02 µM (inactive)
GI50 (MDA-MB-231): 51.4 µM (inactive)
GI50 (IGROV-1): > 48.9 µM (inactive)
GI50 (NCI-H226): > 100 µM (inactive)
GI50 (OVCAR-3): 19.2 µM (inactive)
GI50 (A549): 50.8 µM (inactive)
GI50 (A498): 27.7 µM (inactive)
GI50 (SW-620): 50.5 µM (inactive)
GI50 (MOLT-4): 1.8 µM (inactive)
GI50 (MDA-MB-435): 7.16 µM (inactive)
GI50 (T47D): 1.06 µM (active)
GI50 (SF-268): > 66.4 µM (inactive)
GI50 (ACHN): > 93.3 µM (inactive)
